The source of these data is patent publication US5359135A, “Triasulfurone compounds” (priority 1990, dated 1994).

What all share (format): binding, mouse (Balb/c)
Conditions in all cases: for Cross-reactivity: (triasulfurone conc. for 50% inhibition/analog conc. for 50% inhibition) × 100

One test relates to MAb 4147-19-4. Description: competitive ELISA, triasulfurone and analogs with MAb 4147-19-4 (Table 1). An excerpt:
(§1) As defined within the context of this invention, the percentage of cross-reactivity is represented by the following equation: [triasulfurone concentration for 50% inhibition (I50)/concentration of the triasulfurone analogs for 50% inhibition (I50)]×100.
(§2) The I50 value can be determined, for example, by means of a competitive ELISA assay (see Example 8). In that case the I50 value corresponds, for example, to the antigen concentration that leads to a 50% inhibition of the binding of the antibody to the carrier-bound antigen.
(§3) The detection of triasulfurone is effected by means of a two-step competitive ELISA test.
(§4) BSA-conjugated hapten, prepared in accordance with Example 1.3.1 or 1.3.2, in a 50mM sodium carbonate buffer (pH 9.6) (200 ng of BSA-conjugated hapten/100 μl of sodium carbonate buffer) is first of all adsorbed on microtitre plates (for example Dynatech, type M 129A) and incubated overnight at a temperature of 4° C. The plates are then washed five times with PBS buffer enriched with 0.1% (v/v) polysorbate 20 (Tween 20) (PBS Tween).
(§5) The remaining free binding sites of the solid carder material are then blocked by the addition of PBS-BSA in the form of a 1% (w/v) solution. After incubation for two hours at 22° C. the plates are washed again with PBS Tween (0.1%).
(§6) 50 μl of the supernatant of the previously cloned hybridoma cells (in a dilution of 1:2000 or 1:4000) or 50 μl of the previously purified monoclonal antibodies (40-120 ng/ml) are incubated a) with 950 μl of a standard solution containing an increasing amount of triasulfurone or of triasulfurone analogs, b) with triasulfurone-containing water samples or c) with triasulfurone-containing soil extracts. [All dilutions are carried out in PBS Tween (0.1%)].
(§7) After an incubation period of 1 hour at room temperature (22° C.), 200 μl of the antigen/antibody mixture are added to each well in the microtitre plate and the whole batch is incubated for a further one hour. The wells are then washed five times with PBS Tween (0.1%) and charged with 100 μl/well of goat anti-mouse IgG antibody that is conjugated to alkaline phosphatase (dilution 1:1500), and incubated for a period of 1.5 hours.
(§8) After washing again, 150 μl/well of the substrate p-nitrophenyl phosphate dissolved in 1 mg/ml of diethanolamine buffer ([…], pH 9.8, enriched with 0.5 mM MgCl2 ×6H2 O) are added to the wells.
(§9) The intensity of the colour reaction that has occurred is determined at a wavelength of 405 nm. […] All the samples are determined in triplicate.
(§10) In order to determine the amount of triasulfurone present in a sample, first of all a calibration curve is produced (FIG. 1), B/Bo×100 being plotted against the concentration of inhibitor. (Bo represents the absorption capacity measured without the addition of a triasulfurone inhibitor to the antibody, and B is the absorption capacity when triasulfurone inhibitors at various concentrations are added). The I50 value indicates the concentration of the antigen at which the binding of antibody to the solid phase is inhibited by 50%. The I50 value is determined using an ENZFITTER (Leatherbarrow, Elsevier-Biosoft) curve-calculation program based on a four-parameter logistical curve (Raab GM, 1983) and specially adapted to the prevailing conditions. The quantitative determination of triasulfurone in soil or water samples within the context of ELISA is also carried out using the ENZFITTER program, the adaptation of the curve being based on standards that run on any microtitre plate.
(An ELISA detects its analyte on a solid surface through an enzyme-linked reagent.)

Another test deals with MAb 4134-40-1. Description: competitive ELISA, triasulfurone and analogs with MAb 4134-40-1 (Table 1).
Text: as §1, §2, §3, §4, §5, §6, §7, §8, §9, §10

A further test deals with MAb 4149-1-1. Nature of the test: competitive ELISA, triasulfurone and analogs with MAb 4149-1-1 (Table 1).
Text: as §1, §2, §3, §4, §5, §6, §7, §8, §9, §10

Regarding `CCS(=O)(=O)c1cccnc1S(=O)(=O)NC(=O)Nc1nc(OC)cc(OC)n1` [Q], the “I50 (inhibitor concentration that reduces the ELISA signal by 50% in comparison to the control)” value in the test with MAb 4147-19-4, in the test with MAb 4134-40-1 and with MAb 4149-1-1 was > 1000 ng/mL each time. Moreover, the Cross-reactivity in the test on MAb 4147-19-4 is recorded as < 0.01%; in the test on MAb 4134-40-1, < 0.7%; in the test with MAb 4149-1-1 it was < 0.01%.

`CCCOC(=O)NS(=O)(=O)c1ccccc1OCCCl` [R]: the “I50 (inhibitor concentration that reduces the ELISA signal by 50% in comparison to the control)” value in the test with MAb 4147-19-4 was 1.9 ng/mL; in the test with MAb 4134-40-1 it was 2.1 ng/mL; in the test with MAb 4149-1-1, 0.02 ng/mL. For the same molecule, the values for the Cross-reactivity in the test on MAb 4147-19-4, in the test with MAb 4134-40-1 and with MAb 4149-1-1 were 4.7%, 342.9% and 250.00%, respectively.

Consider `NC(=O)NS(=O)(=O)c1ccccc1OCCCl` [S], for which the results for the “I50 (inhibitor concentration that reduces the ELISA signal by 50% in comparison to the control)” value with MAb 4147-19-4, with MAb 4134-40-1 and in the test on MAb 4149-1-1 were 2.6 ng/mL, 6.0 ng/mL and 0.02 ng/mL, respectively. Moreover, the figures for the Cross-reactivity with MAb 4147-19-4, with MAb 4134-40-1 and in the test on MAb 4149-1-1 were 3.5%, 120.0% and 250.00%, respectively.

For `CCN(CC)C(=O)NS(=O)(=O)c1ccccc1OCCCl` [T], the “I50 (inhibitor concentration that reduces the ELISA signal by 50% in comparison to the control)” value came to 17.6 ng/mL in the test with MAb 4147-19-4, 0.9 ng/mL in the test with MAb 4134-40-1 and 0.01 ng/mL with MAb 4149-1-1. In addition, the Cross-reactivity in the test with MAb 4147-19-4 is reported as 0.5%; in the test with MAb 4134-40-1 it was 800.0%; with MAb 4149-1-1, 500.00%.

As for `COc1nc(C)nc(NC(=O)NS(=O)(=O)c2ccccc2OCCCl)n1` [triasulfurone, 3-(6-methoxy-4-methyl-1,3,5-triazin-2-yl)-1-[2-(2-chloroethoxy)-phenylsulfonyl]-urea], the results for the “I50 (inhibitor concentration that reduces the ELISA signal by 50% in comparison to the control)” value with MAb 4147-19-4, in the test on MAb 4134-40-1 and in the test on MAb 4149-1-1 were 0.09 ng/mL, 7.2 ng/mL and 0.05 ng/mL, respectively. Moreover, the Cross-reactivity with MAb 4147-19-4, in the test on MAb 4134-40-1 and in the test with MAb 4149-1-1 was 100.0% throughout.
